In PubChem BioAssay (NCI):
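Five concentrations, 48 hours, 96-well plates. The concentration for 50% growth inhibition is given as GI50. At the TGI there is no net growth.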

Assays:
Experiment in all cases: DTP human tumour cell line panel, 48 h
[1] = tested on: HOP-92 NSCLC
[2] = tested on: NCI-H23 lung
[3] = tested on: OVCAR-5 ovarian
[4] = tested on: OVCAR-8 ovarian
[5] = tested on: SK-MEL-28 melanoma
[6] = tested on: SN12C renal
[7] = tested on: SW-620 colon
[8] = tested on: U251 CNS
[9] = tested on: UO-31 renal
[10] = tested on: XF 498 CNS

Row | SMILES | TGI [1] [µM] | TGI [2] [µM] | TGI [3] [µM] | TGI [4] [µM] | TGI [5] [µM] | TGI [6] [µM] | TGI [7] [µM] | TGI [8] [µM] | TGI [9] [µM] | TGI [10] [µM] | GI50 [2] [µM] | GI50 [4] [µM] | GI50 [5] [µM] | GI50 [6] [µM] | GI50 [7] [µM] | GI50 [8] [µM] | GI50 [9] [µM] | GI50 [10] [µM]
1 | CC(=O)Oc1ccccc1C(=O)C1c2cccc(O)c2C(=O)c2c(O)cccc21 | 3.76 | 4.33 | 6.22 | 4.34 | 7.14 | 12.1 | 2.26 | 1.99 | 1.68 | 0.506 | – | – | – | – | – | – | – | –
2 | C/C=C(/CCCCNCCCC)[Si](C)(C)C | 20.9 | 31.9 | 27.6 | 31.8 | 29.4 | 30.5 | 34.1 | 26.3 | 31.4 | 23.7 | – | – | – | – | – | – | – | –
3 | Cc1cccc(C(C)(C)C)c1NC(=O)C(=O)C(c1cnc2ccccc2n1)[N+](=O)[O-] (stereo not drawn) | > 100 | > 100 | > 100 | > 100 | > 100 | > 100 | > 100 | > 100 | > 100 | > 100 | – | – | – | – | – | – | – | –
4 | CC(=O)C1=C([O-])C(C)OC1=O.CC(=O)C1=C([O-])C(C)OC1=O.[NH-]C1CCCC[C@H]1[NH-].[Pt+4] (stereo not drawn) | – | > 100 | – | > 100 | > 100 | > 100 | > 100 | > 100 | > 100 | > 100 | 47.5 | > 100 | 43.8 | 41.6 | 8.69 | > 100 | > 100 | 66.9
5 | CCOC(=O)/C(C#N)=C1\N[C@H](C(=O)OCC)CO1 | – | > 100 | > 100 | > 100 | > 100 | > 100 | > 100 | > 100 | > 100 | 78.1 | – | – | – | – | – | – | – | –
6 | O=C1CC2C(=O)N(Cc3ccccc3)C1C(S(=O)(=O)c1ccccc1)C2S(=O)(=O)c1ccccc1 (stereo not drawn) | 4.24 | 10.7 | 31.9 | 5.19 | 3.72 | 3.18 | 1.69 | 8.61 | 22.6 | 3.53 | – | – | – | – | – | – | – | –
7 | COc1ccc2c(C(=O)O)cc3cc(OC)c(OC)cc3c2c1 | > 100 | > 100 | > 100 | > 100 | > 100 | > 100 | > 100 | > 100 | > 100 | > 100 | – | – | – | – | – | – | – | –
8 | COc1ccc(COCC(Cn2ccnc2)OCc2ccc(C(=O)O)cc2)cc1 (stereo not drawn) | > 100 | > 100 | > 100 | > 100 | > 100 | > 100 | > 100 | > 100 | > 100 | > 100 | – | – | – | – | – | – | – | –
9 | O=c1cccccc1NCCCCCCCCCNc1cccccc1=O | 41.6 | 74.6 | 58 | 34.7 | – | 62.2 | 68.2 | 30 | 41.6 | 20 | – | – | – | – | – | – | – | –
10 | CC1CC2(CC[C@@H]1O)OCCO2 (stereo partly drawn) | > 100 | > 100 | – | > 100 | – | > 100 | > 100 | > 100 | > 100 | > 100 | – | – | – | – | – | – | – | –
11 | Cc1c2ccncc2c(C)c2c1[nH]c1ccc(OC(C)(C)C)cc12 | 25.1 | 24.9 | 54.9 | 9.75 | 3.77 | – | 5.1 | 10.1 | 4.3 | 3.75 | – | – | – | – | – | – | – | –
12 | O=c1[nH]cc(OCC(F)(F)F)c(=O)[nH]1 | > 100 | > 100 | > 100 | > 100 | > 100 | > 100 | > 100 | > 100 | > 100 | > 100 | – | – | – | – | – | – | – | –
13 | CCOC(=O)N1C2C=C(C)C(C3C(C)C(=O)N31)N(C(=O)c1ccccc1)O2 (stereo not drawn) | > 100 | > 100 | > 100 | > 100 | > 100 | > 100 | > 100 | > 100 | > 100 | > 100 | – | – | – | – | – | – | – | –
14 | CN(C)C(=O)C1CCC(=C2C(=O)OC(C)(C)OC2=O)N1C (stereo not drawn) | > 100 | > 100 | > 100 | > 100 | > 100 | > 100 | > 100 | > 100 | > 100 | > 100 | – | – | – | – | – | – | – | –
15 | Clc1ccc(CN2COc3c(cc(Cl)c4cccnc34)C2)cc1 | 12.9 | 6.8 | 8.11 | 5.05 | 7.38 | 15.6 | 11 | 6.45 | 5.51 | 7.24 | – | – | – | – | – | – | – | –
16 | Cc1cccc(C)c1NC(=O)CCCC(=O)C1CCC/C1=N\NC(=O)C(=O)NN (stereo not drawn) | – | > 100 | > 100 | > 100 | > 100 | > 100 | > 100 | > 100 | > 100 | > 100 | – | – | – | – | – | – | – | –
17 | CCC1CN2CCc3cc(OC)c(OC)cc3C2CC1CC1c2cc(OC)c(OC)cc2CCN1C(=O)CNC(=O)OC(C)(C)C (stereo not drawn) | – | 56.1 | 77.3 | > 100 | 61 | 90 | 29.1 | > 100 | 68.3 | 28.9 | – | – | – | – | – | – | – | –
18 | O=C(O)c1c[nH]cc1C(=O)O | > 100 | > 100 | > 100 | > 100 | – | > 100 | > 100 | > 100 | > 100 | > 100 | – | – | – | – | – | – | – | –
